From patent US20210047304A1, “Bromodomain Inhibitors” (AbbVie Inc., priority 2016, published 2021)

Target: BRD4 (BDI_K57-E168) (Homo sapiens, UniProt O60885)
Assay: TR-FRET bromodomain binding assay, BRD4 BDI
Protocol: A time-resolved fluorescence resonance energy transfer (TR-FRET) assay was used to determine the affinities of compounds of the Examples listed in Table 1 for each bromodomain of BRD4. […] An Alexa647-labeled BET-inhibitor was used as the fluorescent probe in the assay.
(§1) Compound dilution series were prepared in DMSO via an approximately 3-fold serial dilution. Compound dilutions were added directly into white, low-volume assay plates (Perkin Elmer Proxiplate 384 Plus #6008280) using a Labcyte Echo in conjunction with Labcyte Access and Thermo Multidrop CombinL robotics. Compounds were then suspended in eight microliters (μL) of assay buffer (20 mM Sodium Phosphate, pH 6.0, 50 mM NaCl, 1 mM Ethylenediaminetetraacetic acid disodium salt dihydrate, 0.01% Triton X-100, 1 mM DL-Dithiothreitol) containing His-tagged bromodomain, Europium-conjugated anti-His antibody (Invitrogen PV5596) and Alexa-647-conjugated probe.
After a one-hour equilibration at room temperature, TR-FRET ratios were determined using an Envision multilabel plate reader (Ex 340, Em 495/520).
TR-FRET data were normalized to the means of 24 no-compound controls (“high”) and 8 controls containing 1 μM un-labeled probe (“low”). Percent inhibition was plotted as a function of compound concentration and the data were fit with the 4 parameter logistic equation to obtain IC50s. Inhibition constants (Ki) were calculated from the IC50s, probe Kd and probe concentration.
Compound dilution series for Compounds A-E were prepared in DMSO via an approximately 3-fold serial dilution from 0.47 mM to 7.8 nM.
as §1, with “Compound” for “Compound dilution series were prepared in DMSO via an approximately 3-fold serial dilution. Compound”
TR-FRET data were normalized to the means of 24 no-compound controls (“high”) and 8 controls containing 1 μM un-labeled probe (“low”). Percent inhibition was plotted as a function of compound concentration and the data were fit with the 4 parameter logistic equation to obtain IC50s. Inhibition constants (Ki) were calculated from the IC50s, probe Kd and probe concentration. Typical Z′ values were between 0.65 and 0.75. The minimum significant ratio was determined to evaluate assay reproducibility (Eastwood et al., (2006) J Biomol Screen, 11: 253-261). The MSR was determined to be 2.03 for BDI and 1.93 for BDII, and a moving MSR (last six run MSR overtime) for both BDI and BDII was typically <3.

| Compound | Ki [µM] |
| --- | --- |
| CC(=O)NC1(C)CCC(Oc2cc(=O)n(C)cc2-c2cc(C(C)(C)O)ccc2Oc2c(C)cc(F)cc2C)CC1 (stereo not drawn) [Example 32, N-[trans-4-({5-[2-(4-fluoro-2,6-dimethylphenoxy)-5-(2-hydroxypropan-2-yl)phenyl]-1-methyl-2-oxo-1,2-dihydropyridin-4-yl}oxy)-1-methylcyclohexyl]acetamide] | 1.01 |
| CCc1c(-c2cc(C(C)(C)O)ccc2Oc2c(C)cc(F)cc2C)c(O[C@H]2CC[C@H](N3CCCC3=O)CC2)cc(=O)n1C [Example 33, 6-ethyl-5-[2-(4-fluoro-2,6-dimethylphenoxy)-5-(2-hydroxypropan-2-yl)phenyl]-1-methyl-4-{[trans-4-(2-oxopyrrolidin-1-yl)cyclohexyl]oxy}pyridin-2(1H)-one] | > 13 |
| Cc1cc(F)cc(C)c1Oc1ccc(C(C)(C)O)cc1-c1cn(C)c(=O)cc1OC1CCC(C)(N2CCCC2=O)CC1 (stereo not drawn) [Example 34, 5-[2-(4-fluoro-2,6-dimethylphenoxy)-5-(2-hydroxypropan-2-yl)phenyl]-1-methyl-4-{[trans-4-methyl-4-(2-oxopyrrolidin-1-yl)cyclohexyl]oxy}pyridin-2(1H)-one] | 0.89 |
| Cc1cc(F)cc(C)c1Oc1ccc(C(C)(C)O)cc1-c1cn(C)c(=O)cc1O[C@H]1CC[C@H](N2CCNC2=O)CC1 [Example 35, 5-[2-(4-fluoro-2,6-dimethylphenoxy)-5-(2-hydroxypropan-2-yl)phenyl]-1-methyl-4-{[trans-4-(2-oxoimidazolidin-1-yl)cyclohexyl]oxy}pyridin-2(1H)-one] | 1.81 |
| C=CCCCC(=O)N[C@H]1CC[C@H](Oc2cc(=O)n(C)cc2-c2cc(C(C)(C)O)ccc2Oc2c(C)cc(F)cc2C)CC1 [Example 36, N-[trans-4-({5-[2-(4-fluoro-2,6-dimethylphenoxy)-5-(2-hydroxypropan-2-yl)phenyl]-1-methyl-2-oxo-1,2-dihydropyridin-4-yl}oxy)cyclohexyl]hex-5-enamide] | 5.79 |
| Cc1cc(F)cc(C)c1Oc1ccc(C(C)(C)O)cc1-c1cn(C)c(=O)cc1O[C@H]1CC[C@H](N2CCCCCC2=O)CC1 [Example 37, 1-[trans-4-({5-[2-(4-fluoro-2,6-dimethylphenoxy)-5-(2-hydroxypropan-2-yl)phenyl]-1-methyl-2-oxo-1,2-dihydropyridin-4-yl}oxy)cyclohexyl]azepan-2-one] | 2.51 |
| Cc1cc(F)cc(C)c1Oc1ccc(C(C)(C)O)cc1-c1cn(C)c(=O)cc1O[C@H]1CC[C@H](N2CCOC2=O)CC1 [Example 38, 5-[2-(4-fluoro-2,6-dimethylphenoxy)-5-(2-hydroxypropan-2-yl)phenyl]-1-methyl-4-{[trans-4-(2-oxo-1,3-oxazolidin-3-yl)cyclohexyl]oxy}pyridin-2(1H)-one] | 2.5 |
| Cc1cc(F)cc(C)c1Oc1ccc(C(C)(C)O)cc1-c1cn(C)c(=O)cc1O[C@H]1CC[C@H](N2CCCOC2=O)CC1 [Example 39, 3-[trans-4-({5-[2-(4-fluoro-2,6-dimethylphenoxy)-5-(2-hydroxypropan-2-yl)phenyl]-1-methyl-2-oxo-1,2-dihydropyridin-4-yl}oxy)cyclohexyl]-1,3-oxazinan-2-one] | 2.25 |
| Cc1cc(F)cc(C)c1Oc1ccc(C(C)(C)O)cc1-c1cn(C)c(=O)cc1O[C@H]1CC[C@H](N2CCOCC2=O)CC1 [Example 40, 4-[trans-4-({5-[2-(4-fluoro-2,6-dimethylphenoxy)-5-(2-hydroxypropan-2-yl)phenyl]-1-methyl-2-oxo-1,2-dihydropyridin-4-yl}oxy)cyclohexyl]morpholin-3-one] | 2.03 |
| Cc1cc(F)cc(C)c1Oc1ccc(C(C)(C)O)cc1-c1cn(C)c(=O)cc1O[C@H]1CC[C@H](N2CCCN(C)C2=O)CC1 [Example 41, 1-[trans-4-({5-[2-(4-fluoro-2,6-dimethylphenoxy)-5-(2-hydroxypropan-2-yl)phenyl]-1-methyl-2-oxo-1,2-dihydropyridin-4-yl}oxy)cyclohexyl]-3-methyltetrahydropyrimidin-2(1H)-one] | 2.48 |
